Our source for the EC50, Emax and melting point values is publication PMC9687812, “Discovery of Trace Amine-Associated Receptor 1 (TAAR1) Agonist 2-(5-(4′-Chloro-[1,1′-biphenyl]-4-yl)-4H-1,2,4-triazol-3-yl)ethan-1-amine (LK00764) for the Treatment of Psychotic Disorders” (Biomolecules, 2022).

Read-outs that look alike come from different tables or passages of the source.

One data set addresses T1, TAAR1 (Homo sapiens, UniProt Q96RJ0).
T1 sequence (Q96RJ0 1-339): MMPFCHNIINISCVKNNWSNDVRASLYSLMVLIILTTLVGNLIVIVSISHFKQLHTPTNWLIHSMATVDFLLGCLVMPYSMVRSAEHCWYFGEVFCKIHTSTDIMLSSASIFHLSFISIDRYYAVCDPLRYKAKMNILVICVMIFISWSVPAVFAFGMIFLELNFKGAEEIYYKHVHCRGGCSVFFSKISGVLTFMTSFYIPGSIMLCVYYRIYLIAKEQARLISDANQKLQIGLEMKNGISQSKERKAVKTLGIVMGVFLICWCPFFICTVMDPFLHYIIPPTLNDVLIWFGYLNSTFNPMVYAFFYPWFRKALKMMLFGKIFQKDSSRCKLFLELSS
The data set is described as follows: BRET-based cellular cAMP (EPAC biosensor) assay of TAAR1 agonism in transfected HEK-293 cells. The note with it: for Emax: HEK293, read-out: Emax: maximum observed activation of TAAR1 relative to that observed for 1 μM of β-PEA.

The mark [1] stands for this setting: TAAR1 activation, BRET assay, HEK-293, mean from 3 assays.

Procedure for TAAR1: The Bioluminescence Resonance Energy Transfer approach (BRET) has been used for functional activity experiments. HEK-293 cells were transiently transfected with cDNA for TAARs and cAMP BRET biosensor (EPAC) and then plated in a 96-well plate, as described [23]. All compounds were tested at the initial concentration of 10 µM. […] A natural agonist of TAAR1 β-phenylethylamine (β-PEA) was used as a positive control.

What is called EC50 is the concentration giving half of the maximal effect. Read a high EC50 as a need for much substance. As usually defined, the Emax is the greatest response seen or fitted, relative to the assay's reference. The term melting point denotes the temperature of the solid-liquid transition. `Cl.NCCc1nnc(-c2cccc(O)c2)[nH]1` [Compound 55, 3-(5-(2-Aminoethyl)-4H-1,2,4-triazol-3-yl)phenol Hydrochloride] came in with a melting point of 234 to 235 °C. For the same compound, at TAAR1, the EC50 was more than 1000 nM and the Emax worked out at 88%.

In turn, `Cc1cc(-c2nnc(CCN)[nH]2)ccc1Br.Cl` [Compound 12, 2-(5-(4-Bromo-3-methylphenyl)-4H-1,2,4-triazol-3-yl)ethan-1-amine Hydrochloride] gave a melting point of 251 to 252 °C. On TAAR1, the EC50 amounted to 812 nM and the Emax is 87%.

With `Cl.NCCc1nnc(-c2ccc(-c3ccc(OC(F)(F)F)cc3)cc2)[nH]1` [Compound 59, 2-(5-(4′-Trifluoromethoxy-(1,1′-biphenyl)-4-yl)-4H-1,2,4-triazol-3-yl)ethan-1-amine Hydrochloride], the melting point fell in the range of 299 to 300 °C. Also, at TAAR1, the EC50 was determined as 13 nM and the Emax was 95%.

The compound `Cl.NCCc1nnc(-c2ccc3ncccc3c2)[nH]1` [Compound 35, 2-(5-(Quinolin-6-yl)-4H-1,2,4-triazol-3-yl)ethan-1-amine Hydrochloride] showed a melting point of 265 to 267 °C. At TAAR1, the EC50 was more than 1000 nM and the Emax was 41%.

For `Cl.NCCc1nnc(-c2ccc(-c3cc(F)cc(F)c3)cc2)[nH]1` [Compound 65, 2-(5-(3′,5′-Difluoro-(1,1′-biphenyl)-4-yl)-4H-1,2,4-triazol-3-yl)ethan-1-amine Hydrochloride], the melting point was in the range of 260 to 262 °C. Also, at TAAR1, it took 13 nM to reach a half-maximal effect (EC50) and the Emax was 105%.

For the compound `Cl.NCCc1nnc(-c2cccc([N+](=O)[O-])c2)[nH]1` [Compound 36, 2-(5-(3-Nitrophenyl)-4H-1,2,4-triazol-3-yl)ethan-1-amine Hydrochloride], the melting point fell in the range of 214 to 216 °C. Also, on TAAR1, the EC50 came to 440 nM and the Emax was found to be 110%.

`CCCCOc1ccc(-c2nnc(CCN)[nH]2)cc1.Cl` [Compound 40, 2-(5-(4-Butoxyphenyl)-4H-1,2,4-triazol-3-yl)ethan-1-amine Hydrochloride] registered a melting point of 205 to 207 °C. At TAAR1, the EC50 is 34 nM and the Emax worked out at 107%. In addition, on TAAR1 (setting [1]), the EC50 result is given as “double-digit nanomolar range”.

The compound `Cl.NCCc1nnc(-c2ccc(-c3ccc(F)cc3F)cc2)[nH]1` [Compound 61, 2-(5-(2′,4′-Difluoro-(1,1′-biphenyl)-4-yl)-4H-1,2,4-triazol-3-yl)ethan-1-amine Hydrochloride] displayed a melting point of 251 to 253 °C. On TAAR1, the response was half-maximal at 18 nM (EC50) and the Emax was 93%.

`Cc1ccc(Oc2ccc(-c3nnc(CCN)[nH]3)cc2)cc1C.Cl` [Compound 51, 2-(5-(4-[3,4-Dimethylphenoxy]phenyl)-4H-1,2,4-triazol-3-yl)ethan-1-amine Hydrochloride] showed a melting point of 201 to 203 °C. At TAAR1, the EC50 came to 900 nM and the Emax stood at 77%.

`Cl.NCCc1nnc(-c2ccc(OCc3ccc(F)cc3)cc2)[nH]1` [Compound 45, 2-(5-(4-[(4-Fluorobenzyl)oxy]phenyl)-4H-1,2,4-triazol-3-yl)ethan-1-amine Hydrochloride] yielded a melting point of 220 to 222 °C. Further, on TAAR1, the EC50 turned out to be 22 nM and the maximum response (Emax) came to 114%.

The compound `Cc1ccccc1-c1nnc(CCN)[nH]1.Cl` [Compound 23, 2-(5-(2-Methylphenyl)-4H-1,2,4-triazol-3-yl)ethan-1-amine Hydrochloride] had a melting point of 235 to 236 °C. Besides, at TAAR1, the midpoint of the response, the EC50, lay at 468 nM and the Emax came out at 116%.

On to `Cl.NCCc1nnc(-c2ccc(OCc3ccccc3F)c(I)c2)[nH]1` [Compound 56, 2-(5-(4-[(2-Fluorobenzyl)oxy]-3-iodophenyl)-4H-1,2,4-triazol-3-yl)ethan-1-amine Hydrochloride], for which the melting point is 208 to 209 °C. On TAAR1, the EC50 amounted to 316 nM and the Emax turned out to be 87%.

`Cl.NCCc1nnc(-c2ccccc2)[nH]1` [Compound 22, 2-(5-Phenyl-4H-1,2,4-triazol-3-yl)ethan-1-amine Hydrochloride] yielded a melting point of 250 to 252 °C. Besides, on TAAR1, the concentration for a half-maximal effect (EC50) came out at 283 nM and the Emax is 118%.

The compound `Cc1cc(-c2nnc(CCN)[nH]2)ccc1OCc1cccc(F)c1.Cl` [Compound 47, 2-(5-(4-[(3-Fluorobenzyl)oxy]-3-methylphenyl)-4H-1,2,4-triazol-3-yl)ethan-1-amine Hydrochloride] came in with a melting point of 215 to 216 °C. Further, on TAAR1, the midpoint of the response, the EC50, lay at 142 nM and the Emax came to 106%.

For the compound `Cl.NCCc1nnc(-c2ccncc2)[nH]1` [Compound 10, 2-(5-(Pyridin-4-yl)-4H-1,2,4-triazol-3-yl)ethan-1-amine Hydrochloride], the melting point was 257 to 258 °C. For the same compound, the Emax on TAAR1 is 47%. The compound further yielded an EC50 at TAAR1 (setting [1]) of more than 1000 nM.

For the compound `Cl.NCCc1nnc(-c2cccc(Oc3ccccc3Cl)c2)[nH]1` [Compound 53, 2-(5-(3-[2-Chlorophenoxy]phenyl)-4H-1,2,4-triazol-3-yl)ethan-1-amine Hydrochloride], the melting point lay in the range of 202 to 210 °C. At TAAR1, the EC50 came to 847 nM and the Emax was determined as 71%.

In turn, `Cl.NCCc1nnc(-c2cccc(I)c2)[nH]1` [Compound 41, 2-(5-(3-Iodophenyl)-4H-1,2,4-triazol-3-yl)ethan-1-amine Hydrochloride] gave a melting point of 224 to 225 °C. For the same compound, on TAAR1, the EC50 came out at 890 nM and the Emax is 80%.
